In patent US4115482A, “Stereospecific cis- and trans-vinylic phosphorus esters” (priority 1977, dated 1978):

What was measured:
bovine cholinesterase = target: T1, bovine cholinesterase (Bos taurus, UniProt P23795); experiment: Cholesterinase placeholder; assay type: biochemical; conditions: for Cholinesterase IC50 (50% inhibiting concentration), after oxidation: after oxidation with peracetic acid in benzene (75°, 20 minutes) to the corresponding monothiophosphate, bovine cholinesterase, 35° C., 30 minutes
T1 construct: Ellman test with acetylthiocholine
T1 sequence (P23795 31-613): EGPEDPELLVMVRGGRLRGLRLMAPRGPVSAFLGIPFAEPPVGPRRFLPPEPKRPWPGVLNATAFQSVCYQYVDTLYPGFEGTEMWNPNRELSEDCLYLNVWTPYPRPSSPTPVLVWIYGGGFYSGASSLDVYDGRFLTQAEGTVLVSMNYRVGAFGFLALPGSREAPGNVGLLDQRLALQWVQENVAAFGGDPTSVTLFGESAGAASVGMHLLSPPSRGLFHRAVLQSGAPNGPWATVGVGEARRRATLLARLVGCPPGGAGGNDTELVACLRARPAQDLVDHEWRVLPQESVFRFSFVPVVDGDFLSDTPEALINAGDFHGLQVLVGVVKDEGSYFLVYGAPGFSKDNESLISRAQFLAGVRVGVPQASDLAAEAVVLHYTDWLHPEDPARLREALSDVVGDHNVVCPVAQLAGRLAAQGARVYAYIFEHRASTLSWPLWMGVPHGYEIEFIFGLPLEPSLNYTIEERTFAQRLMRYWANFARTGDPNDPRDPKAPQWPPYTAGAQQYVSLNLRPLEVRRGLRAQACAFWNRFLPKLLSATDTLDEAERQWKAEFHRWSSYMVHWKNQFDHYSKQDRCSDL
Procedure: The insecticidal effectiveness of organophosphorus compounds is generally attributed to their inhibition of the cholinesterase enzyme. This inhibiting potency is usually expressed as the concentration of the compound which will reduce the activity of the enzyme by 50%, i.e. […]. The […] values of several cis- and trans-S-propenyl dialkyl dithiophosphates were determined to estimate the relative insecticidal potential of the geometric isomer pairs.
Test Method: To a solution of 0.2 unit of bovine cholinesterase in 2.97 ml of a buffer solution containing 11.15 g of disodium hydrogen phosphate dodecahydrate and 1.81 g of potassium dihydrogen phosphate per liter of water, 0.03 ml of a solution of the dithiophosphate adduct in benzene was added. This mixture was then incubated in a water bath at 35° C. for 30 minutes. One ml of a solution containing 100 mg of 5,5'-dithiobis-(2-nitrobenzoic acid), 100 mg of acetylthiocholine iodide, and 75 ml of the above buffer solution in sufficient water to make 200 ml was then added and the mixture again incubated in a water bath at 35° C. for 30 minutes more. The amount of inhibition of bovine cholinesterase was then determined from the absorbance of this solution at 420 millimicrons. By using a series of solutions of the test chemical at various concentrations in acetone, the concentration needed for 50% inhibition was determined.
The oxidation was carried out with peracetic acid in benzene solution at 75° for 20 minutes. After the removal of the excess peracetic acid, the benzene solution was used for enzyme inhibition as described above.
The median inhibiting concentrations for the cis- and trans-S-propenyl dimethyl and diethyl dithiophosphates are listed in Table II. Data on S-vinyl dimethyl dithiophosphate are also tabulated for comparison.

two spotted spider mite = experiment: Systemic miticidal action on potted bean plants (soil treatment); assay type: in vivo; conditions: 20 ml of aqueous emulsion containing 0.05% of the chemical applied to soil, 5 days
Procedure: For this purpose, a systemic pesticide test on mites was chosen as an example.
Test Method: Potted bean plants were infested with the two spotted spider mite. The soil in the pots was then treated by applying 20 ml of aqueous emulsion containing 0.05% of the chemical. The emulsions were prepared by dissolving the cis- and the trans-compound in acetone and dispersing it in distilled water with Triton X-100. (The emulsifier is an alkylaryl polyether alcohol derived from nonylphenol and ethylene oxide). After the application of the test emulsion, the plants were held for 5 days and then the degree of mite control was rated.

Question: How did the “Cholinesterase IC50 (50% inhibiting concentration), after oxidation” value (bovine cholinesterase) turn out when CC=CSP(=S)(OCC)OCC was run?
Answer: 4.4e-06 mol/L

Question: C/C=C/SP(=S)(OC)OC [Example 4, trans-S-Propenyl O,O'-Dimethyl Dithiophosphate] was tested. Which “Cholinesterase IC50 (50% inhibiting concentration), after oxidation” value (bovine cholinesterase) did it give?
Answer: 2.8e-08 mol/L

Question: What about the “cholinesterase inhibition, comparison in words” value (bovine cholinesterase; relative inhibiting potency of isomers, oxidized forms and S-vinyl analog) of the same compound?
Answer: the substitution of the trans-vinylic hydrogen by a methyl group increases the insecticidal potential

Question: And the “degree of mite control (systemic)” value (two spotted spider mite)?
Answer: completely free from mites and nymphs

Question: How did the “Cholinesterase IC50 (50% inhibiting concentration), after oxidation” value (bovine cholinesterase) turn out when C/C=C/SP(=S)(OCC)OCC [Example 1, trans-S-Propenyl O,O'-Diethyl Dithiophosphate] was run?
Answer: 1.6e-07 mol/L

Question: Which “Cholinesterase IC50 (50% inhibiting concentration), after oxidation” value (bovine cholinesterase) does the source give for C=CSP(=S)(OC)OC [Reference, S-vinyl dimethyl dithiophosphate, reference compound] here?
Answer: 3.1 × 10^ -6 mole/liter

Question: For C/C=C\SP(=S)(OC)OC [Example 3, cis-Propenyl O,O'-Dimethyl Dithiophosphate], which “Cholinesterase IC50 (50% inhibiting concentration), after oxidation” value (bovine cholinesterase) is on record?
Answer: 4.1e-05 mol/L

Question: What about the “degree of mite control (systemic)” value (two spotted spider mite) of the same compound?
Answer: there were live mites and their nymphs

Question: For C/C=C\SP(=S)(OCC)OCC [Example 2, cis-Propenyl O,O'-Diethyl Dithiophosphate], which “Cholinesterase IC50 (50% inhibiting concentration), after oxidation” value (bovine cholinesterase) is on record?
Answer: 0.00018 mol/L
